# Measurements: patent publication US11634425B2, “Pharmaceutical compounds” (priority 2019, dated 2023)
# Read-outs that look alike come from different tables or passages of the source.
# What was measured:
# RSV A2 = assay: RSV plaque reduction assay; format: cell-based, respiratory syncytial virus (RSV); details: human respiratory syncytial virus, HepG2, Hep-G2 cells, mean of at least two experiments
# Method in brief: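 RSV A2 at 100 PFU/well was premixed with eight compound dilutions and added to confluent Hep-G2 monolayers for 2 h at 37 °C. Cells were then kept 2 days under a DMEM/2% FBS/0.8% CMC overlay containing compound. Immunostained plaques were counted relative to virus controls, and EC50 came from 4-parameter fits, averaged over at least two experiments.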
# in vitro = in vitro ADME; details: microsomes, pH 7.4, 1 μM compound, 0.5 mg/mL protein, read-out: Liver Microsomal Stability t1/2
# Method in brief: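 Pooled liver microsomes (0.5 mg/mL protein) in 0.1 M phosphate pH 7.4 with 1 μM compound and 1 mM NADPH at 37° C., sampled at 0–45 min; minus-NADPH control at 45 min. Acetonitrile quench, LC-MS/MS; t1/2 and CLint from ln peak-area ratio vs time slope.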
# Cell cytotoxicity (CC50) = format: cell-based; details: human; mean of at least two experiments
# Method in brief: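 Values are means of ≥2 independent runs, rounded to whole units, from 4-parameter variable-slope curve fits. Toxicity measured in Hep-G2 cells run alongside RSV plaque-reduction assays.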
smiles,measurement,setting,value
"CN1C[C@@H]2C[C@H]1CN2c1ccc2nc(-c3ccccc3)c(C(=O)N[C@H]3N=C(c4ccccc4)c4cccc(F)c4NC3=O)n2n1 [Example 80, N-[(3S)-9-fluoro-2-oxo-5-phenyl-1,3-dihydro-1,4-benzodiazepin-3-yl]-6-[(1S,4S)-5-methyl-2,5-diazabicyclo[2.2.1]heptan-2-yl]-2-phenylimidazo[1,2-b]pyridazine-3-carboxamide]",EC50,RSV A2,51 nM
same,half-life at 1 μM,in vitro; dog,2.98 h
same,half-life at 1 μM,in vitro; human,2.4 h
same,half-life at 1 μM,in vitro; rat,1.9 h
same,CC50,Cell cytotoxicity (CC50),13800 nM
"O=C(N[C@H]1N=C(c2ccccc2)c2ccccc2NC1=O)c1c(-c2ccc(C3CC3)nc2)nn2cccnc12 [Example 29, 2-(6-Cyclopropylpyridin-3-yl)-N-[(3S)-2-oxo-5-phenyl-1,3-dihydro-1,4-benzodiazepin-3-yl]pyrazolo[1,5-a]pyrimidine-3-carboxamide]",EC50,RSV A2,72 nM
same,half-life at 1 μM,in vitro; dog,1.23 h
same,half-life at 1 μM,in vitro; human,5.22 h
same,half-life at 1 μM,in vitro; rat,15.2 h
same,CC50,Cell cytotoxicity (CC50),> 25000 nM
"Cn1ncc2cc(-c3nn4cccnc4c3C(=O)N[C@H]3N=C(c4ccccc4)c4cccc(F)c4NC3=O)ccc21 [Example 63, N-[(3S)-9-fluoro-2-oxo-5-phenyl-1,3-dihydro-1,4-benzodiazepin-3-yl]-2-(1-methylindazol-5-yl)pyrazolo[1,5-a]pyrimidine-3-carboxamide]",EC50,RSV A2,66 nM
same,half-life at 1 μM,in vitro; dog,2.53 h
same,half-life at 1 μM,in vitro; human,1.88 h
same,half-life at 1 μM,in vitro; rat,3.78 h
same,CC50,Cell cytotoxicity (CC50),> 25000 nM
"CN1CCN(c2ccc3nc(-c4ccccc4F)c(C(=O)N[C@H]4N=C(c5ccccc5)c5cccc(F)c5NC4=O)n3n2)CC1 [Example 95, N-[(3S)-9-fluoro-2-oxo-5-phenyl-1,3-dihydro-1,4-benzodiazepin-3-yl]-2-(2-fluorophenyl)-6-(4-methylpiperazin-1-yl)imidazo[1,2-b]pyridazine-3-carboxamide]",EC50,RSV A2,93 nM
same,half-life at 1 μM,in vitro; dog,1.11 h
same,half-life at 1 μM,in vitro; human,0.948 h
same,half-life at 1 μM,in vitro; rat,0.595 h
same,CC50,Cell cytotoxicity (CC50),> 21100 nM
"O=C(N[C@H]1N=C(c2ccccc2)c2cccc(F)c2NC1=O)c1c(-c2cc(F)ccc2F)nn2cccnc12 [Example 7, 2-(2,5-Difluorophenyl)-N-[(3S)-9-fluoro-2-oxo-5-phenyl-1,3-dihydro-1,4-benzodiazepin-3-yl]pyrazolo[1,5-a]pyrimidine-3-carboxamide]",EC50,RSV A2,107 nM
same,half-life at 1 μM,in vitro; dog,2.5 h
same,half-life at 1 μM,in vitro; human,10.7 h
same,half-life at 1 μM,in vitro; rat,2.08 h
same,CC50,Cell cytotoxicity (CC50),> 25000 nM
"CN1C[C@H]2C[C@@H]1CN2c1ccc2nc(-c3ccccc3)c(C(=O)N[C@H]3N=C(c4ccccc4)c4cccc(F)c4NC3=O)n2n1 [Example 81, N-[(3S)-9-fluoro-2-oxo-5-phenyl-1,3-dihydro-1,4-benzodiazepin-3-yl]-6-[(1R,4R)-5-methyl-2,5-diazabicyclo[2.2.1]heptan-2-yl]-2-phenylimidazo[1,2-b]pyridazine-3-carboxamide]",EC50,RSV A2,114 nM
same,half-life at 1 μM,in vitro; dog,1.88 h
same,half-life at 1 μM,in vitro; human,0.488 h
same,half-life at 1 μM,in vitro; rat,1.49 h
same,CC50,Cell cytotoxicity (CC50),8150 nM
"O=C(N[C@H]1N=C(c2ccccc2)c2ccccc2NC1=O)c1c(-c2ccc(NC3CC3)nc2F)nn2cccnc12 [Example 48, 2-[6-(Cyclopropylamino)-2-fluoropyridin-3-yl]-N-[(3S)-2-oxo-5-phenyl-1,3-dihydro-1,4-benzodiazepin-3-yl]pyrazolo[1,5-a]pyrimidine-3-carboxamide]",EC50,RSV A2,13 nM
same,half-life at 1 μM,in vitro; dog,0.37 h
same,half-life at 1 μM,in vitro; human,14.8 h
same,half-life at 1 μM,in vitro; rat,3.62 h
same,CC50,Cell cytotoxicity (CC50),> 25000 nM
"O=C(N[C@H]1N=C(c2ccccc2)c2cccc(F)c2NC1=O)c1c(-c2ccccc2Cl)nn2cccnc12 [Example 10, 2-(2-Chlorophenyl)-N-[(3S)-9-fluoro-2-oxo-5-phenyl-1,3-dihydro-1,4-benzodiazepin-3-yl]pyrazolo[1,5-a]pyrimidine-3-carboxamide]",EC50,RSV A2,77 nM
same,half-life at 1 μM,in vitro; dog,6.33 h
same,half-life at 1 μM,in vitro; human,> 2.33 h
same,half-life at 1 μM,in vitro; rat,1.83 h
same,CC50,Cell cytotoxicity (CC50),21100 nM
"O=C(N[C@H]1N=C(c2ccccc2)c2ccccc2NC1=O)c1c(-c2cncc(Cl)c2)nn2cccnc12 [Example 27, 2-(5-Chloropyridin-3-yl)-N-[(3S)-2-oxo-5-phenyl-1,3-dihydro-1,4-benzodiazepin-3-yl]pyrazolo[1,5-a]pyrimidine-3-carboxamide]",EC50,RSV A2,61 nM
same,half-life at 1 μM,in vitro; dog,0.997 h
same,half-life at 1 μM,in vitro; human,2.03 h
same,half-life at 1 μM,in vitro; rat,8.75 h
same,CC50,Cell cytotoxicity (CC50),> 25000 nM
"Cc1nn2cc(-c3ccoc3)cnc2c1C(=O)N[C@H]1N=C(c2ccccc2)c2cccc(F)c2NC1=O [Example 24, N-[(3S)-9-Fluoro-2-oxo-5-phenyl-1,3-dihydro-1,4-benzodiazepin-3-yl]-6-(furan-3-yl)-2-methylpyrazolo[1,5-a]pyrimidine-3-carboxamide]",EC50,RSV A2,104 nM
same,half-life at 1 μM,in vitro; dog,1.98 h
same,half-life at 1 μM,in vitro; human,> 2.33 h
same,half-life at 1 μM,in vitro; rat,0.427 h
same,CC50,Cell cytotoxicity (CC50),> 25000 nM
"CCNc1ccc2nc(-c3ccccc3F)c(C(=O)N[C@H]3N=C(c4ccccc4)c4cccc(F)c4NC3=O)n2n1 [Example 106, 6-(Ethylamino)-N-[(3S)-9-fluoro-2-oxo-5-phenyl-1,3-dihydro-1,4-benzodiazepin-3-yl]-2-(2-fluorophenyl)imidazo[1,2-b]pyridazine-3-carboxamide]",EC50,RSV A2,66 nM
same,half-life at 1 μM,in vitro; dog,4.8 h
same,half-life at 1 μM,in vitro; human,0.792 h
same,half-life at 1 μM,in vitro; rat,1.46 h
same,CC50,Cell cytotoxicity (CC50),> 25000 nM
"O=C(N[C@H]1N=C(c2ccccc2)c2ccccc2NC1=O)c1c(-c2ccccc2)nc2cccnn12 [Example 87, N-[(3S)-2-oxo-5-phenyl-1,3-dihydro-1,4-benzodiazepin-3-yl]-2-phenylimidazo[1,2-b]pyridazine-3-carboxamide]",EC50,RSV A2,53 nM
same,half-life at 1 μM,in vitro; dog,1.12 h
same,half-life at 1 μM,in vitro; human,68.8 h
same,half-life at 1 μM,in vitro; rat,1.43 h
same,CC50,Cell cytotoxicity (CC50),> 25000 nM
"Cc1ccn2nc(-c3ccc(F)cc3F)c(C(=O)N[C@H]3N=C(c4ccccc4)c4cccc(F)c4NC3=O)c2n1 [Example 36, 2-(2,4-Difluorophenyl)-N-[(3S)-9-fluoro-2-oxo-5-phenyl-1,3-dihydro-1,4-benzodiazepin-3-yl]-5-methylpyrazolo[1,5-a]pyrimidine-3-carboxamide]",EC50,RSV A2,27 nM
same,half-life at 1 μM,in vitro; dog,3.7 h
same,half-life at 1 μM,in vitro; human,> 2.33 h
same,half-life at 1 μM,in vitro; rat,0.557 h
same,CC50,Cell cytotoxicity (CC50),> 25000 nM
"CN1CC(Oc2ccc3nc(-c4ccccc4)c(C(=O)N[C@H]4N=C(c5ccccc5)c5cccc(F)c5NC4=O)n3n2)C1 [Example 109, N-[(3S)-9-Fluoro-2-oxo-5-phenyl-1,3-dihydro-1,4-benzodiazepin-3-yl]-6-(1-methylazetidin-3-yl)oxy-2-phenylimidazo[1,2-b]pyridazine-3-carboxamide]",EC50,RSV A2,96 nM
same,half-life at 1 μM,in vitro; dog,4.33 h
same,half-life at 1 μM,in vitro; human,1.3 h
same,half-life at 1 μM,in vitro; rat,1.15 h
same,CC50,Cell cytotoxicity (CC50),> 16800 nM
"Cc1cncc(-c2nn3cccnc3c2C(=O)N[C@H]2N=C(c3ccccc3)c3cccc(F)c3NC2=O)c1 [Example 64, N-[(3S)-9-fluoro-2-oxo-5-phenyl-1,3-dihydro-1,4-benzodiazepin-3-yl]-2-(5-methylpyridin-3-yl)pyrazolo[1,5-a]pyrimidine-3-carboxamide]",EC50,RSV A2,100 nM
same,half-life at 1 μM,in vitro; dog,3.58 h
same,half-life at 1 μM,in vitro; human,24.2 h
same,half-life at 1 μM,in vitro; rat,1.7 h
same,CC50,Cell cytotoxicity (CC50),> 18800 nM
"Cc1ccc2nc(-c3ccncc3F)c(C(=O)N[C@H]3N=C(c4ccccc4)c4cccc(F)c4NC3=O)n2n1 [Example 100, N-[(3S)-9-fluoro-2-oxo-5-phenyl-1,3-dihydro-1,4-benzodiazepin-3-yl]-2-(3-fluoropyridin-4-yl)-6-methylimidazo[1,2-b]pyridazine-3-carboxamide]",EC50,RSV A2,47 nM
same,half-life at 1 μM,in vitro; dog,1.37 h
same,half-life at 1 μM,in vitro; human,15.1 h
same,half-life at 1 μM,in vitro; rat,0.457 h
same,CC50,Cell cytotoxicity (CC50),> 25000 nM
"CNc1ccc(-c2nn3cccnc3c2C(=O)N[C@H]2N=C(c3ccccc3)c3ccccc3NC2=O)c(F)c1 [Example 16, 2-[2-Fluoro-4-(methylamino)phenyl]-N-[(3S)-2-oxo-5-phenyl-1,3-dihydro-1,4-benzodiazepin-3-yl]pyrazolo[1,5-a]pyrimidine-3-carboxamide]",EC50,RSV A2,18 nM
same,half-life at 1 μM,in vitro; dog,0.657 h
same,half-life at 1 μM,in vitro; human,1.5 h
same,half-life at 1 μM,in vitro; rat,0.652 h
same,CC50,Cell cytotoxicity (CC50),> 25000 nM
"O=C(N[C@H]1N=C(c2ccccc2)c2cccc(F)c2NC1=O)c1c(-c2cnc3[nH]ccc3c2)nn2cccnc12 [Example 75, N-[(3S)-9-Fluoro-2-oxo-5-phenyl-1,3-dihydro-1,4-benzodiazepin-3-yl]-2-(1H-pyrrolo[2,3-b]pyridin-5-yl)pyrazolo[1,5-a]pyrimidine-3-carboxamide]",EC50,RSV A2,44 nM
same,half-life at 1 μM,in vitro; dog,1.45 h
same,half-life at 1 μM,in vitro; human,11.3 h
same,half-life at 1 μM,in vitro; rat,0.833 h
same,CC50,Cell cytotoxicity (CC50),> 25000 nM
